In patent US20240148821A1, “PHARMACEUTICAL USE OF CYCLIC PEPTIDE COMPOUND” (CHUGAI SEIYAKU KABUSHIKI KAISHA, priority 2021, published 2024):
Numbered stars: 1 amine (or outer) side, 2 acyl side, 3 side chain; on linkers, the order of the positions; unused ones are H or OH. Bridge positions count the residues as written; N and C are the ends. Square brackets hold non-standard residues; d marks the D form. Peptide text beside a SMILES is read from it. * marks the point of attachment. hPhe(3-Cl-4-CF3) = N[C@@H](CCc1ccc(C(F)(F)F)c(Cl)c1)C(=O)O; Phe(3-CF3) = N[C@@H](Cc1cccc(C(F)(F)F)c1)C(=O)O; NMePhe(4-Cl) = CN[C@@H](Cc1ccc(Cl)cc1)C(=O)O; NMePhe(4-Me) = CN[C@@H](Cc1ccc(C)cc1)C(=O)O; NMedβ3hAla = C[C@H](CC(=O)[*:2])N(C)[*:1]; NMeAla(cPent) = CN[C@@H](CC1CCCC1)C(=O)O; NMeNva(5,5-F2) = CN[C@@H](CCC(F)F)C(=O)O; NMeGly(cPent) = CN[C@H](C(=O)O)C1CCCC1; Phe(3-I) = N[C@@H](Cc1cccc(I)c1)C(=O)O; NMe3Pal = CN[C@@H](Cc1cccnc1)C(=O)O; NMeCha = CN[C@@H](CC1CCCCC1)C(=O)O; NMeGly(cPr) = CN[C@H](C(=O)O)C1CC1; NMeAllylGly = C=CC[C@H](NC)C(=O)O; NMeChg = CN[C@H](C(=O)O)C1CCCCC1; NMeI = CC[C@H](C)[C@H](NC)C(=O)O; NMeD = CN[C@@H](CC(=O)O)C(=O)O; NMeL = CN[C@@H](CC(C)C)C(=O)O; Cba = N[C@@H](CC1CCC1)C(=O)O; dNMeAbu = CC[C@@H](NC)C(=O)O; NMeV = CN[C@H](C(=O)O)C(C)C; d(β3hA) = C[C@@H](N)CC(=O)O; NMeS = CN[C@@H](CO)C(=O)O; dNMeS = CN[C@H](CO)C(=O)O; NMeA = CN[C@@H](C)C(=O)O; NMeAib = CNC(C)(C)C(=O)O; Nle = CCCC[C@H](N)C(=O)O; Piperidide = C1CCN(*)CC1; Ac5c = NC1(C(=O)O)CCCC1; Aze = O=C(O)[C@@H]1CCN1; CH2CMe2OH = CC(C)(O)C*; Aib = CC(C)(N)C(=O)O; Isopentyl = CC(C)CC*; NEtG = CCNCC(=O)O; Sar = CNCC(=O)O

The molecules below were run on Human pancreatic cancer cell line AsPC-1 (G12D mutation Kras) (assay: AsPC-1 cell growth inhibition (AsPC-1 CGI)). Details: read-out: AsPC-1 cell growth inhibition, 50% growth inhibitory concentration (IC50 value); 96 hours, CellTiter-Glo, values classified in ranges.
Format: cell-based
Method: Test compounds were serially dilated with dimethyl sulfoxide, and 200 nL was then dispensed to a U-bottom 96-well plate using Labcyte Echo. […] The cell suspension was dispensed to a. plate containing a test compound at 100 μL per well and incubated at 37° C. in a 5% carbon dioxide gas incubator. 96 hours later, 80 μL of CellTiter-Glo (Promega) was added to each well and fluorescence was measured.

Structure (SMILES) | IC50
CC[C@H](C)[C@@H]1NC(=O)[C@H](CC(C)C)N(C)C(=O)C[C@@H](C(=O)N(C)C)N(C)C(=O)[C@H]([C@@H](C)CC)N(C)C(=O)[C@H](C)NC(=O)[C@H](Cc2cccnc2)N(C)C(=O)[C@H](CCc2ccc(C(F)(F)F)c(Cl)c2)NC(=O)CN(C)C(=O)[C@H](Cc2ccc(C)cc2)N(C)C(=O)[C@@H]2CCN2C(=O)[C@H](C)N(C)C1=O [Compound 557] ([NMeL]I[NMeA][Aze][NMePhe(4-Me)][Sar][hPhe(3-Cl-4-CF3)][NMe3Pal]A[NMeI][NMeD]-NMe2; lactam N-11) | > 500 nM
CC[C@H](C)[C@@H]1NC(=O)[C@H](CC(C)C)N(C)C(=O)C[C@@H](C(=O)N2CCCCC2)N(C)C(=O)[C@H](CC(C)C)NC(=O)C(C)(C)N(C)C(=O)[C@H](Cc2cccc(C(F)(F)F)c2)NC(=O)[C@H](Cc2cccc(I)c2)NC(=O)CN(C)C(=O)[C@H](Cc2ccc(C)cc2)N(C)C(=O)CN(C)C(=O)CN(C)C1=O [Compound 376] ([NMeL]I[Sar][Sar][NMePhe(4-Me)][Sar][Phe(3-I)][Phe(3-CF3)][NMeAib]L[NMeD]-Piperidide; lactam N-11) | > 500 nM
CCCC[C@@H]1NC(=O)[C@H](Cc2cccc(I)c2)NC(=O)CN(C)C(=O)[C@H](Cc2ccc(Cl)cc2)N(C)C(=O)CN(C)C(=O)CN(C)C(=O)[C@H]([C@@H](C)CC)NC(=O)[C@H](CC(C)C)N(C)C(=O)C[C@@H](C(=O)N2CCCCC2)N(C)C(=O)[C@H](CC2CCC2)NC(=O)C(C)(C)N(C)C1=O [Compound 1422] ([NMeL]I[Sar][Sar][NMePhe(4-Cl)][Sar][Phe(3-I)][Nle][NMeAib][Cba][NMeD]-Piperidide; lactam N-11) | > 500 nM
C=CC[C@H]1C(=O)NC2(CCCC2)C(=O)N(C)[C@@H](C2CCCCC2)C(=O)N(C)[C@H](C(=O)N2CCCCC2)CC(=O)N(C)[C@@H](CC(C)C)C(=O)N[C@@H]([C@@H](C)CC)C(=O)N(C)CC(=O)N(C)CC(=O)N(C)[C@@H](CC2CCCCC2)C(=O)N(C)CC(=O)N[C@@H](CCc2ccc(C(F)(F)F)c(Cl)c2)C(=O)N1C [Compound 1449] ([NMeL]I[Sar][Sar][NMeCha][Sar][hPhe(3-Cl-4-CF3)][NMeAllylGly][Ac5c][NMeChg][NMeD]-Piperidide; lactam N-11 (inferred); C-terminus assumed) | > 500 nM
CC[C@H](C)[C@@H]1NC(=O)[C@H](CC(C)C)N(C)C(=O)C[C@@H](C(=O)N2CCCCC2)N(C)C(=O)[C@H](C(C)C)N(C)C(=O)C2(CCCC2)NC(=O)[C@@H](CO)N(C)C(=O)[C@H](CCc2ccc(C(F)(F)F)c(Cl)c2)NC(=O)CN(C)C(=O)[C@H](CC2CCCCC2)N(C)C(=O)[C@@H]2CCN2C(=O)[C@H](C)N(C)C1=O [Compound 1444] ([NMeL]I[NMeA][Aze][NMeCha][Sar][hPhe(3-Cl-4-CF3)][dNMeS][Ac5c][NMeV][NMeD]-Piperidide; lactam N-11) | > 500 nM
CC[C@H](C)[C@@H]1NC(=O)[C@H](CC(C)C)N(C)C(=O)C[C@@H](C(=O)N2CCCCC2)N(C)C(=O)[C@H](C2CCCCC2)N(C)C(=O)C2(CCCC2)NC(=O)[C@@H]2CCCN2C(=O)[C@H](CCc2ccc(C(F)(F)F)c(Cl)c2)NC(=O)CN(C)C(=O)[C@H](CC2CCCCC2)N(C)C(=O)CN(C)C(=O)[C@H](C)N(C)C1=O [Compound 1345] ([NMeL]I[NMeA][Sar][NMeCha][Sar][hPhe(3-Cl-4-CF3)]P[Ac5c][NMeChg][NMeD]-Piperidide; lactam N-11) | > 500 nM
CC[C@H](C)[C@@H]1NC(=O)[C@H](CC2CCCC2)N(C)C(=O)C[C@@H](C(=O)N(C)C)N(C)C(=O)[C@H]([C@@H](C)CC)N(C)C(=O)C2(CCCC2)NC(=O)[C@@H]2CCCN2C(=O)[C@H](CCc2ccc(C(F)(F)F)c(Cl)c2)NC(=O)CN(C)C(=O)[C@H](Cc2ccc(C)cc2)N(C)C(=O)[C@@H]2CCN2C(=O)[C@H](C)NC1=O [Compound 1141] ([NMeAla(cPent)]IA[Aze][NMePhe(4-Me)][Sar][hPhe(3-Cl-4-CF3)]P[Ac5c][NMeI][NMeD]-NMe2; lactam N-11) | ≤ 20 nM
CC[C@H](C)[C@@H]1NC(=O)[C@H](CC(C)C)N(C)C(=O)C[C@@H](C)N(C)C(=O)[C@H](CC(C)C)NC(=O)C(C)(C)N(C)C(=O)[C@H](CC(C)C)NC(=O)[C@H](CCc2ccc(C(F)(F)F)c(Cl)c2)NC(=O)CN(C)C(=O)[C@H](Cc2ccc(C)cc2)N(C)C(=O)[C@@H]2CCN2C(=O)CN(C)C1=O [Compound 1386] (cyclo([Aze][NMePhe(4-Me)][Sar][hPhe(3-Cl-4-CF3)]L[NMeAib]L[NMedβ3hAla][NMeL]I[Sar])) | > 500 nM
CC[C@H](C)[C@@H]1NC(=O)[C@H](CC(C)C)N(C)C(=O)C[C@@H](C)NC(=O)[C@H](CC(C)C)N(C)C(=O)C(C)(C)NC(=O)[C@H](COCC(C)(C)O)N(C)C(=O)[C@H](CCc2ccc(C(F)(F)F)c(Cl)c2)NC(=O)CN(C)C(=O)[C@H](COCCC(C)C)N(C)C(=O)[C@@H]2CCN2C(=O)CN(CC)C1=O [Compound 1472] (cyclo([Aib][NMeL][d(β3hA)][NMeL]I[NEtG][Aze][NMeS](Isopentyl)[Sar][hPhe(3-Cl-4-CF3)][NMeS](CH2CMe2OH))) | > 500 nM
CC[C@H](C)[C@@H]1NC(=O)[C@H](COC)N(C)C(=O)C[C@@H](C(=O)N2CCCCC2)N(C)C(=O)[C@H](C(C)C)N(C)C(=O)C2(CCCC2)NC(=O)[C@@H]2CCCN2C(=O)[C@H](CCc2ccc(C(F)(F)F)c(Cl)c2)NC(=O)CN(C)C(=O)[C@H](CC2CCCCC2)N(C)C(=O)[C@@H]2CCN2C(=O)[C@H](C)N(C)C1=O [Compound 636] ([NMeS](Me)I[NMeA][Aze][NMeCha][Sar][hPhe(3-Cl-4-CF3)]P[Ac5c][NMeV][NMeD]-Piperidide; lactam N-11) | > 500 nM
CC[C@H](C)[C@@H]1NC(=O)[C@H](CC(C)C)N(C)C(=O)C[C@@H](C(=O)N2CCCCC2)N(C)C(=O)[C@H](C(C)C)N(C)C(=O)C2(CCCC2)NC(=O)[C@@H]2CCCN2C(=O)[C@H](CCc2ccc(C(F)(F)F)c(Cl)c2)NC(=O)CN(C)C(=O)[C@H](CC2CCCCC2)N(C)C(=O)[C@@H]2CCN2C(=O)[C@H](C2CC2)N(C)C1=O [Compound 1553] ([NMeL]I[NMeGly(cPr)][Aze][NMeCha][Sar][hPhe(3-Cl-4-CF3)]P[Ac5c][NMeV][NMeD]-Piperidide; lactam N-11) | > 500 nM
CC[C@H](C)[C@@H]1NC(=O)[C@H](CC(C)C)N(C)C(=O)C[C@@H](C(=O)N2CCCCC2)N(C)C(=O)[C@H](C2CCCCC2)N(C)C(=O)C2(CCCC2)NC(=O)[C@@H]2CCCN2C(=O)[C@H](CCc2ccc(C(F)(F)F)c(Cl)c2)NC(=O)CN(C)C(=O)[C@H](CCC(F)F)N(C)C(=O)CN(C)C(=O)CN(C)C1=O [Compound 1647] ([NMeL]I[Sar][Sar][NMeNva(5,5-F2)][Sar][hPhe(3-Cl-4-CF3)]P[Ac5c][NMeChg][NMeD]-Piperidide; lactam N-11) | > 500 nM
CC[C@@H]1C(=O)NC2(CCCC2)C(=O)N(C)[C@@H](C2CCCC2)C(=O)N(C)[C@H](C(=O)N2CCCCC2)CC(=O)N(C)[C@@H](CC(C)C)C(=O)N[C@@H]([C@@H](C)CC)C(=O)N(C)[C@@H](C)C(=O)N2CC[C@H]2C(=O)N(C)[C@@H](CC2CCCCC2)C(=O)N(C)CC(=O)N[C@@H](CCc2ccc(C(F)(F)F)c(Cl)c2)C(=O)N1C [Compound 1441] ([NMeL]I[NMeA][Aze][NMeCha][Sar][hPhe(3-Cl-4-CF3)][dNMeAbu][Ac5c][NMeGly(cPent)][NMeD]-Piperidide; lactam N-11) | > 500 nM
